Laboratory results published in PubChem BioAssay AID248 (DTP/NCI, 2004).
Values joined by “and” are separate entries in the source; they are usually repeats but may differ in a detail not shown here. Identical values can stand only once. Inconclusive results and toxic doses are left out. Cut-off read from the data, not from the text of the source: active = T/C of 150% or more; inactive = T/C below 125%.

Test system: L1210 leukemia ip in BDF1 mice, survival T/C
Assay: NCI In Vivo Anticancer Drug Screen. Data for tumor model L1210 Leukemia (intraperitoneal) in B6D2F1 (BDF1) mice
Conditions: endpoint: mean survival time, higher = longer survival
Procedure, shortened: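 Transplantable tumor model; survival measured in treated vs vehicle control mice. Value = treated/control.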

[1] = dose: 50.0 mg/kg/injection, schedule: Q01DX009 (ip), vehicle: saline
[2] = dose: 100.0 mg/kg/injection, schedule: Q01DX009 (ip), vehicle: saline
[3] = dose: 200.0 mg/kg/injection, schedule: Q01DX009 (ip), vehicle: saline
[4] = dose: 100.0 mg/kg/injection, schedule: Q01DX009 (ip), vehicle: Klucel (hydroxypropylcellulose) (HPC)
[5] = dose: 200.0 mg/kg/injection, schedule: Q01DX009 (ip), vehicle: Klucel (hydroxypropylcellulose) (HPC)
[6] = dose: 400.0 mg/kg/injection, schedule: Q01DX009 (ip), vehicle: Klucel (hydroxypropylcellulose) (HPC)
[7] = dose: 100.0 mg/kg/injection, schedule: Q01DX001 (ip), vehicle: other
[8] = dose: 200.0 mg/kg/injection, schedule: Q01DX001 (ip), vehicle: other
[9] = dose: 400.0 mg/kg/injection, schedule: Q01DX001 (ip), vehicle: other
[10] = dose: 400.0 mg/kg/injection, schedule: Q01DX009 (ip), vehicle: saline
[11] = dose: 100.0 mg/kg/injection, schedule: Q04DX003 (ip), vehicle: Klucel (hydroxypropylcellulose) (HPC)
[12] = dose: 100.0 mg/kg/injection, schedule: Q01DX009 (ip), vehicle: other
[13] = dose: 200.0 mg/kg/injection, schedule: Q01DX009 (ip), vehicle: other

Measured: T/C

CN1CCC=C(C(=O)N(c2ccccc2)c2ccccc2)C1
inactive: [1] 106 % of control | [2] 101 % of control | dose: 100.0 mg/kg/injection, schedule: Q04DX003 (ip), vehicle: saline 93 % of control | [3] 97 % of control | dose: 200.0 mg/kg/injection, schedule: Q04DX003 (ip), vehicle: saline 98 % of control

CC1(C)NC(=O)N(C(C)(C)C(=O)O)C1=O
inactive: dose: 100.0 mg/kg/injection, schedule: Q01DX001 (ip), vehicle: carboxymethylcellulose (CMC) 90 % of control | dose: 200.0 mg/kg/injection, schedule: Q01DX001 (ip), vehicle: carboxymethylcellulose (CMC) 95 % of control | dose: 400.0 mg/kg/injection, schedule: Q01DX001 (ip), vehicle: carboxymethylcellulose (CMC) 87 % of control

CCCCOCCOP(OCCOCCCC)OCCOCCCC
inactive: [4] 101 % of control | [5] 102 % of control | [6] 90 % of control

COc1ccc(OC)c(NC(=O)NNC(=O)c2ccccc2Cl)c1
inactive: dose: 25.0 mg/kg/injection, schedule: Q01DX009 (ip), vehicle: saline with Tween-80 100 % of control | dose: 50.0 mg/kg/injection, schedule: Q01DX009 (ip), vehicle: saline with Tween-80 91 % of control | dose: 100.0 mg/kg/injection, schedule: Q01DX009 (ip), vehicle: saline with Tween-80 94 % of control

Nc1ccc(N=Nc2ccc(S(N)(=O)=O)cc2)cn1
inactive: dose: 50.0 mg/kg/injection, schedule: Q01DX001 (ip), vehicle: other 97 % of control | [7] 94 % of control | [8] 103 % of control | [9] 100 % of control

O=C(CCl)Nc1ccc(S(=O)(=O)F)cc1
inactive: dose: 12.5 mg/kg/injection, schedule: Q01DX009 (ip), vehicle: carboxymethylcellulose (CMC) 93 % of control | dose: 25.0 mg/kg/injection, schedule: Q01DX009 (ip), vehicle: carboxymethylcellulose (CMC) 88 % of control | dose: 50.0 mg/kg/injection, schedule: Q01DX009 (ip), vehicle: carboxymethylcellulose (CMC) 88 % of control | dose: 100.0 mg/kg/injection, schedule: Q04DX003 (ip), vehicle: carboxymethylcellulose (CMC) 96 % of control

CC(=O)c1c(OC(=O)c2ccccc2)cc(OC(=O)c2ccccc2)cc1OC(=O)c1ccccc1
inactive: [4] 101 % of control | [2] 97 % of control | [5] 93 % of control | [3] 106 % of control | [6] 95 % of control | [10] 100 % of control

CCCCOC(=O)/C=C/C(=O)[O][Sn]([CH2]CCC)([CH2]CCC)[O]C(=O)/C=C/C(=O)OCCCC
inactive: dose: 12.5 mg/kg/injection, schedule: Q01DX009 (sc), vehicle: olive oil, sesame oil, peanut oil 98 % of control | dose: 25.0 mg/kg/injection, schedule: Q01DX009 (sc), vehicle: olive oil, sesame oil, peanut oil 108 % of control | dose: 25.0 mg/kg/injection, schedule: Q04DX002 (sc), vehicle: olive oil, sesame oil, peanut oil 97 % of control | dose: 50.0 mg/kg/injection, schedule: Q01DX009 (sc), vehicle: olive oil, sesame oil, peanut oil 95 % of control | dose: 50.0 mg/kg/injection, schedule: Q04DX002 (sc), vehicle: olive oil, sesame oil, peanut oil 94 % of control | dose: 100.0 mg/kg/injection, schedule: Q04DX002 (sc), vehicle: olive oil, sesame oil, peanut oil 96 % of control and 106 % of control | dose: 200.0 mg/kg/injection, schedule: Q04DX002 (sc), vehicle: olive oil, sesame oil, peanut oil 89 % of control

Cc1cc(=O)n2c3c(c4c(cc13)c(CBr)cc(=O)n4C)OC2
inactive: dose: 25.0 mg/kg/injection, schedule: Q01DX009 (ip), vehicle: Klucel (hydroxypropylcellulose) (HPC) 86 % of control | dose: 50.0 mg/kg/injection, schedule: Q01DX009 (ip), vehicle: Klucel (hydroxypropylcellulose) (HPC) 102 % of control | dose: 75.0 mg/kg/injection, schedule: Q01DX009 (ip), vehicle: Klucel (hydroxypropylcellulose) (HPC) 94 % of control and 87 % of control | [11] 103 % of control | dose: 200.0 mg/kg/injection, schedule: Q04DX003 (ip), vehicle: Klucel (hydroxypropylcellulose) (HPC) 93 % of control | dose: 400.0 mg/kg/injection, schedule: Q04DX003 (ip), vehicle: Klucel (hydroxypropylcellulose) (HPC) 104 % of control

O=C1c2ccccc2C(=O)c2c1cccc2S(=O)(=O)O
inactive: dose: 25.0 mg/kg/injection, schedule: Q01DX001 (ip), vehicle: saline with Tween-80 105 % of control | dose: 50.0 mg/kg/injection, schedule: Q01DX001 (ip), vehicle: saline with Tween-80 103 % of control | dose: 100.0 mg/kg/injection, schedule: Q01DX001 (ip), vehicle: saline with Tween-80 105 % of control

COC(=O)c1cn(/C=C/c2ccccc2)cn1
inactive: dose: 87.5 mg/kg/injection, schedule: Q04DX003 (ip), vehicle: Klucel (hydroxypropylcellulose) (HPC) 94 % of control | dose: 175.0 mg/kg/injection, schedule: Q04DX003 (ip), vehicle: Klucel (hydroxypropylcellulose) (HPC) 89 % of control | dose: 350.0 mg/kg/injection, schedule: Q04DX003 (ip), vehicle: Klucel (hydroxypropylcellulose) (HPC) 97 % of control

C[n+]1ccc(/C=C/c2c(Cl)cccc2Cl)c2ccccc21
inactive: dose: 3.13 mg/kg/injection, schedule: Q04DX003 (ip), vehicle: Klucel (hydroxypropylcellulose) (HPC) 94 % of control | dose: 6.25 mg/kg/injection, schedule: Q04DX003 (ip), vehicle: Klucel (hydroxypropylcellulose) (HPC) 98 % of control | dose: 12.5 mg/kg/injection, schedule: Q04DX003 (ip), vehicle: Klucel (hydroxypropylcellulose) (HPC) 93 % of control

O=C1CC(=O)N2CCCCC2N1 (stereo not given)
inactive: dose: 100.0 mg/kg/injection, schedule: Q01DX001 (ip), vehicle: alcohol 106 % of control | dose: 200.0 mg/kg/injection, schedule: Q01DX001 (ip), vehicle: alcohol 103 % of control | dose: 400.0 mg/kg/injection, schedule: Q01DX001 (ip), vehicle: alcohol 110 % of control

NNC12CC3CC(CC(C3)C1)C2
inactive: dose: 1.56 mg/kg/injection, schedule: Q01DX009 (ip), vehicle: saline 100 % of control | dose: 3.12 mg/kg/injection, schedule: Q01DX009 (ip), vehicle: saline 100 % of control | dose: 6.25 mg/kg/injection, schedule: Q01DX009 (ip), vehicle: saline 100 % of control | dose: 12.5 mg/kg/injection, schedule: Q01DX009 (ip), vehicle: saline 110 % of control and 90 % of control | dose: 12.5 mg/kg/injection, schedule: Q04DX003 (ip), vehicle: saline 105 % of control | dose: 25.0 mg/kg/injection, schedule: Q04DX003 (ip), vehicle: saline 118 % of control | dose: 50.0 mg/kg/injection, schedule: Q04DX003 (ip), vehicle: saline 96 % of control

C#CCOC(=O)C1C2CCC(O2)C1C(=O)O (stereo not given)
inactive: dose: 1.25 mg/kg/injection, schedule: Q01DX009 (ip), vehicle: saline 100 % of control | dose: 2.5 mg/kg/injection, schedule: Q01DX009 (ip), vehicle: saline 109 % of control

CCOC(=O)N1CCc2nc3ccccc3cc21
inactive: dose: 50.0 mg/kg/injection, schedule: Q01DX009 (ip), vehicle: other 100 % of control | [12] 90 % of control | [13] 93 % of control

CC(C)(C)CC(C)(C)c1ccc(OCCOc2ccc(S(=O)(=O)O)cc2[N+](=O)[O-])cc1
inactive: [2] 105 % of control | [3] 105 % of control | [10] 100 % of control

c1ccc2c(c1)nnn1c3ccccc3nc21
inactive: dose: 25.0 mg/kg/injection, schedule: Q04DX003 (ip), vehicle: Klucel (hydroxypropylcellulose) (HPC) 102 % of control | dose: 50.0 mg/kg/injection, schedule: Q04DX003 (ip), vehicle: Klucel (hydroxypropylcellulose) (HPC) 94 % of control | [7] 97 % of control | [12] 101 % of control | [11] 104 % of control | [8] 108 % of control and 92 % of control | [13] 86 % of control | [9] 95 % of control and 92 % of control | dose: 400.0 mg/kg/injection, schedule: Q01DX009 (ip), vehicle: other 90 % of control

Nc1ncnc2c1ncn2C1CC(O)C(O)CO1 (stereo not given)
inactive: dose: 100.0 mg/kg/injection, schedule: Q01DX001 (ip), vehicle: saline 105 % of control | dose: 200.0 mg/kg/injection, schedule: Q01DX001 (ip), vehicle: saline 106 % of control | dose: 400.0 mg/kg/injection, schedule: Q01DX001 (ip), vehicle: saline 105 % of control

Cc1cncn1Cc1ccc([N+](=O)[O-])cc1
inactive: dose: 25.0 mg/kg/injection, schedule: Q01DX009 (ip), vehicle: saline 101 % of control and 102 % of control | dose: 25.0 mg/kg/injection, schedule: Q04DX002 (ip), vehicle: saline 106 % of control and 115 % of control | [1] 98 % of control and 108 % of control | dose: 50.0 mg/kg/injection, schedule: Q04DX002 (ip), vehicle: saline 97 % of control and 100 % of control | [2] 96 % of control
